Like-named read-outs stand apart in the source and are kept apart here.
Key:
[1] = test system: SKOV3 (ovarian adenocarcinoma); conditions: human, 72 h
A549 (lung carcinoma) = test: CIMA assay (colorimetric indicator of metabolic activity), cell viability, A549; conditions: for Average cell viability: unit assumed
Experimental: (§1) Stock solutions of the extracts were prepared in dimethylsulfoxide (DMSO) at 10 mg/mL and stored in 200 μl aliquots at −20° C. until analysis. This preparation ensured that the DMSO delivered to cells in culture never exceeded 1%.
(§2) Prepared extracts were assessed following chronic exposure conditions in which cells were seeded at 2×10^3 cells/well (96 well-plate) and incubated with test compounds for 72 h. Each compound was evaluated over a range of concentrations (0, 10, 25, 50 or 100 μg/ml). Cell proliferation was initially assessed using a standard colorimetric indicator of metabolic activity (CIMA) assay. In this assay, tetrazole reduction was evaluated as a measure of metabolic function that evaluates mitochondrial activity to determine the extent of cell proliferation within a culture. This assay is based on the reduction of yellow tetrazolium salt to purple formazan by mitochondrial reductases enzyme in viable cells, resulting in a color changed that confers a change in absorbance.

[2] = test system: U373 (glioblastoma-astrocytoma); test: CIMA assay, cell viability, U373
Experimental: as §1, §2

PC3 [3] = test: CIMA assay, cell viability, PC3
[4] = CIMA assay, cell viability, CCD1079SK; conditions: human, Average cell viability, CCD
[5] = test system: CCD1079SK (fibroblast, noncancerous but proliferating); test: CIMA assay, cell viability, CCD1079SK; conditions: CCD
MDA-MB [6] = test: cells; conditions: Homo sapiens, read-out: Average cell viability, MDA-MB
[7] = test system: SKOV3 (ovarian adenocarcinoma); test: CIMA assay, cell viability, SKOV3; conditions: for Fold change in viability AVG: SKOV
PC3 [8] = conditions: human, 72 h, 1 ug/mL
MDA-MB [9] = conditions: for Fold change in viability AVG / MDA-MB AVG: MDA-MB; for Average cell viability: human, 72 h
[10] = A549, 1 ug/mL, listed as 174-13-14-3
[11] = A549, 10 ug/mL, listed as 169-14-15-4
[12] = A549, 10 ug/mL, listed as 174-13-14-3
[13] = A549, 50 ug/mL, listed as 169-14-15-4
[14] = A549, 50 ug/mL, listed as 174-13-14-3
[15] = A549, 100 ug/mL, listed as 169-14-15-4
[16] = A549, 100 ug/mL, listed as 174-13-14-3
[17] = U373, 1 ug/mL, listed as 169-14-15-4
[18] = U373, 1 ug/mL, listed as 174-13-14-3
[19] = U373, 10 ug/mL, listed as 169-14-15-4
[20] = U373, 10 ug/mL, listed as 174-13-14-3
[21] = U373, 50 ug/mL, listed as 169-14-15-4
[22] = U373, 50 ug/mL, listed as 174-13-14-3
[23] = 10 ug/mL, listed as 169-14-15-4
[24] = 10 ug/mL, listed as 174-13-14-3
[25] = 50 ug/mL, listed as 169-14-15-4
[26] = 50 ug/mL, listed as 174-13-14-3
[27] = 100 ug/mL, listed as 169-14-15-4
[28] = 100 ug/mL, listed as 174-13-14-3

## CC/C=C\C/C=C\C/C=C\C/C=C\C/C=C\CCCC(=O)OCC(COC1OC(CO)C(O)C(O)C1O)OC(=O)CCCCCCCCCCCCCCC (stereo not shown) [Compound 2, MGDG C20:5/C16:0]
[1]; 10 ug/mL
  Average cell viability: 94%
[1]; 50 ug/mL
  Average cell viability: 62%
A549 (lung carcinoma); A549, 1 ug/mL, listed as 169-14-15-4
  Fold change in viability AVG: 1.19
A549 (lung carcinoma); [10]
  Fold change in viability AVG: 1.12
  Average cell viability: 96%
A549 (lung carcinoma); [11]
  Fold change in viability AVG: 1.14
  Average cell viability: 98%
A549 (lung carcinoma); [12]
  Fold change in viability AVG: 0.60
  Average cell viability: 52%
A549 (lung carcinoma); [13]
  Fold change in viability AVG: 0.98
  Average cell viability: 84%
A549 (lung carcinoma); [14]
  Fold change in viability AVG: 0.60
  Average cell viability: 51%
A549 (lung carcinoma); [15]
  Fold change in viability AVG: 0.74
  Average cell viability: 64%
A549 (lung carcinoma); [16]
  Fold change in viability AVG: 0.41
  Average cell viability: 35%
A549 (lung carcinoma); A549, sample at 1 ug/mL, listed as 169-14-15-4
  A549 AVG: 1.19
A549 (lung carcinoma); A549, sample at 1 ug/mL, listed as 174-13-14-3
  A549 AVG: 1.12
A549 (lung carcinoma); A549, sample at 10 ug/mL, listed as 169-14-15-4
  A549 AVG: 1.14
A549 (lung carcinoma); A549, sample at 10 ug/mL, listed as 174-13-14-3
  A549 AVG: 0.60
A549 (lung carcinoma); A549, sample at 50 ug/mL, listed as 169-14-15-4
  A549 AVG: 0.98
A549 (lung carcinoma); A549, sample at 50 ug/mL, listed as 174-13-14-3
  A549 AVG: 0.60
A549 (lung carcinoma); A549, sample at 100 ug/mL, listed as 169-14-15-4
  A549 AVG: 0.74
A549 (lung carcinoma); A549, sample at 100 ug/mL, listed as 174-13-14-3
  A549 AVG: 0.41
A549 (lung carcinoma); Homo sapiens, A549, read-out: Average cell viability, A549, 1 ug/mL
  viability at 1 µg/mL: 102%
[2]; Homo sapiens, U373 MG, read-out: Average cell viability, U373, 100 ug/mL
  viability at 100 µg/mL: 8%
[2]; [17]
  Average cell viability: 106%
  Fold change in viability AVG: 1.08
[2]; [18]
  Average cell viability: 85%
  Fold change in viability AVG: 0.86
[2]; [19]
  Average cell viability: 94%
  Fold change in viability AVG: 0.95
[2]; [20]
  Average cell viability: 73%
  Fold change in viability AVG: 0.74
[2]; [21]
  Average cell viability: 30%
  Fold change in viability AVG: 0.30
[2]; [22]
  Average cell viability: 13%
  Fold change in viability AVG: 0.13
[2]; U373, sample at 1 ug/mL, listed as 169-14-15-4
  U373 AVG: 1.08
[2]; U373, sample at 1 ug/mL, listed as 174-13-14-3
  U373 AVG: 0.86
[2]; U373, sample at 10 ug/mL, listed as 169-14-15-4
  U373 AVG: 0.95
[2]; U373, sample at 10 ug/mL, listed as 174-13-14-3
  U373 AVG: 0.74
[2]; U373, sample at 50 ug/mL, listed as 169-14-15-4
  U373 AVG: 0.30
[2]; U373, sample at 50 ug/mL, listed as 174-13-14-3
  U373 AVG: 0.13
[2]; U373, sample at 100 ug/mL
  U373 AVG: 0.08
[2]; U373, 100 ug/mL
  Fold change in viability AVG: 0.08
PC3 [3]; Homo sapiens, PC-3, read-out: Average cell viability, PC3, 1 ug/mL
  viability at 1 µg/mL: 107%
PC3 [3]; PC3, 1 ug/mL, listed as 169-14-15-4
  Fold change in viability AVG: 1.11
PC3 [3]; PC3, 1 ug/mL, listed as 174-13-14-3
  Fold change in viability AVG: 1.00
PC3 [3]; PC3, 10 ug/mL, listed as 169-14-15-4
  Fold change in viability AVG: 0.93
PC3 [3]; PC3, 10 ug/mL, listed as 174-13-14-3
  Fold change in viability AVG: 0.71
PC3 [3]; PC3, 50 ug/mL, listed as 169-14-15-4
  Fold change in viability AVG: 0.51
PC3 [3]; PC3, 50 ug/mL, listed as 174-13-14-3
  Fold change in viability AVG: 0.05
PC3 [3]; PC3, 100 ug/mL, listed as 169-14-15-4
  Fold change in viability AVG: 0.15
PC3 [3]; PC3, 100 ug/mL, listed as 174-13-14-3
  Fold change in viability AVG: 0.05
PC3 [3]; PC3, sample at 1 ug/mL, listed as 169-14-15-4
  PC3 AVG: 1.11
PC3 [3]; PC3, sample at 1 ug/mL, listed as 174-13-14-3
  PC3 AVG: 1.00
PC3 [3]; PC3, sample at 10 ug/mL, listed as 169-14-15-4
  PC3 AVG: 0.93
PC3 [3]; PC3, sample at 10 ug/mL, listed as 174-13-14-3
  PC3 AVG: 0.71
PC3 [3]; PC3, sample at 50 ug/mL, listed as 169-14-15-4
  PC3 AVG: 0.51
PC3 [3]; PC3, sample at 50 ug/mL, listed as 174-13-14-3
  PC3 AVG: 0.05
PC3 [3]; PC3, sample at 100 ug/mL, listed as 169-14-15-4
  PC3 AVG: 0.15
PC3 [3]; PC3, sample at 100 ug/mL, listed as 174-13-14-3
  PC3 AVG: 0.05
[4]; CCD1079SK fibroblast cells (noncancerous, proliferating), 1 ug/mL
  viability at 72 h, 1 ug/mL: 107%
[4]; CCD1079SK fibroblasts (noncancerous, proliferating), 10 ug/mL
  viability at 72 h, 10 ug/mL: 99%
[4]; CCD1079SK fibroblasts (noncancerous, proliferating), 50 ug/mL
  viability at 72 h, 50 ug/mL: 32%
[4]; CCD1079SK fibroblasts (noncancerous, proliferating), 100 ug/mL
  viability at 72 h, 100 ug/mL: 13%
[5]; 1 ug/mL, listed as 169-14-15-4
  Fold change in viability AVG: 1.18
[5]; 1 ug/mL, listed as 174-13-14-3
  Average cell viability: 101%
  Fold change in viability AVG: 1.11
[5]; [23]
  Fold change in viability AVG: 1.08
[5]; [24]
  Average cell viability: 89%
  Fold change in viability AVG: 0.98
[5]; [25]
  Fold change in viability AVG: 0.36
[5]; [26]
  Average cell viability: 20%
  Fold change in viability AVG: 0.22
[5]; [27]
  Fold change in viability AVG: 0.14
[5]; [28]
  Average cell viability: 14%
  Fold change in viability AVG: 0.15
MDA-MB [6]; 1 ug/mL
  viability at 1 µg/mL: 100%
MDA-MB [6]; 10 ug/mL
  viability at 10 µg/mL: 101%
MDA-MB [6]; 100 ug/mL
  viability at 100 µg/mL: 22%
[7]; Homo sapiens, SK-OV-3, read-out: Average cell viability, SKOV, 50 ug/mL
  viability at 50 µg/mL: 67%
[7]; 1 ug/mL, listed as 169-14-15-4
  Fold change in viability AVG: 1.16
[7]; 1 ug/mL, listed as 174-13-14-3
  Fold change in viability AVG: 0.89
[7]; [23]
  Fold change in viability AVG: 1.02
[7]; [24]
  Fold change in viability AVG: 0.72
[7]; [25]
  Fold change in viability AVG: 0.72
[7]; [26]
  Fold change in viability AVG: 0.67
[7]; [27]
  Fold change in viability AVG: 0.48
[7]; [28]
  Fold change in viability AVG: 0.19
PC3 [8]
  Average cell viability: 97%
MDA-MB [9]; 1 ug/mL, listed as 169-14-15-4
  Fold change in viability AVG: 1.09
MDA-MB [9]; 1 ug/mL, listed as 174-13-14-3
  Fold change in viability AVG: 1.11
MDA-MB [9]; [23]
  Fold change in viability AVG: 1.09
MDA-MB [9]; [24]
  Fold change in viability AVG: 0.90
MDA-MB [9]; [25]
  Fold change in viability AVG: 0.49
MDA-MB [9]; [26]
  Fold change in viability AVG: 0.23
MDA-MB [9]; [27]
  Fold change in viability AVG: 0.24
MDA-MB [9]; [28]
  Fold change in viability AVG: 0.22
MDA-MB [9]; sample at 1 ug/mL, listed as 169-14-15-4
  MDA-MB AVG: 1.09
MDA-MB [9]; sample at 1 ug/mL, listed as 174-13-14-3
  MDA-MB AVG: 1.11
MDA-MB [9]; sample at 10 ug/mL, listed as 169-14-15-4
  MDA-MB AVG: 1.09
MDA-MB [9]; sample at 10 ug/mL, listed as 174-13-14-3
  MDA-MB AVG: 0.90
MDA-MB [9]; sample at 50 ug/mL, listed as 169-14-15-4
  MDA-MB AVG: 0.49
MDA-MB [9]; sample at 50 ug/mL, listed as 174-13-14-3
  MDA-MB AVG: 0.23
MDA-MB [9]; sample at 100 ug/mL, listed as 169-14-15-4
  MDA-MB AVG: 0.24
MDA-MB [9]; sample at 100 ug/mL, listed as 174-13-14-3
  MDA-MB AVG: 0.22
MDA-MB [9]; 1 ug/mL
  Average cell viability: 102%
MDA-MB [9]; 10 ug/mL
  Average cell viability: 83%
MDA-MB [9]; 100 ug/mL
  Average cell viability: 20%

— patent US11292807B2 (OCEANS LTD., priority 2015, dated 2022)
